Test: log P determination via capillary electrophorese on a cePro9600 from CombiSep
Type: physicochemical
Conditions: pH = 10.0
Method: log P determinations were performed via capillary electrophorese on a cePro9600™ from CombiSep.

Row | SMILES | logP
1 | Cc1cc(Cl)cc(C(=O)N=S(C(C)C)C(C)C)c1NC(=O)c1cc(C(F)(F)F)nn1-c1ncccc1Cl [compound 24] | logP: 3.3 [pH = 10.0];
2 | Cc1cccc(C(=O)N=S2CCSC2)c1NC(=O)c1cc(C(F)(F)F)nn1-c1ncccc1Cl (centres unmarked) [Example 208] | logP: 2.2 [pH = 10.0];

— patent US8921567B2, “Process for preparing N-substituted 1H-pyrazole-5-carbonylchloride compounds” (BASF SE, priority 2011, dated 2014)
